What was measured:
[1] = molecular target: T1, recombinant human plasma kallikrein (Human PKal) (Homo sapiens, UniProt P03952); experiment: Inhibitory effect of test compounds on plasma kallikrein (PKal), fluorogenic substrate Z-FR-AMC; format: biochemical; settings: 10 µM Z-FR-AMC, 10 min pre-incubation
T1 construct: Gly20-Ala638 derived from NS0- with a 60-His appendage at the C-terminus; His tag ('60-His' [sic]) (C); purchased R&D Systems 2497-SE; host or cells: mouse myeloma cell line NS0
Experimental: 1. PKal reaction buffer: 25 mM Tris-HCl (trometamol-HCl), pH 8.0, 100 mM NaCl, […], 0.01 % Brij35 (polyoxyethylene lauryl ether), and 1 % DMSO (final concentration).
2. Enzyme: PKal (R&D Systems Cat# 2497-SE), recombinant human plasma kallikrein expressed in a mouse myeloma cell line, Gly20-Ala638 derived from NS0- with a 60-His appendage at the C-terminus, MW=70 kDa. Activation of the enzyme: (1) rhPKal was diluted to 200 µg/mL activation buffer (100 mM Tris, 10 mM CaCl2, 150 mM NaCl, pH 7.5 (TCN)); (2) thermolysin was diluted to 20 µg/mL activation buffer; (3) rhPKal (200 µg/mL) and thermolysin (20 µg/mL) were mixed in equal volumes; (4) the mixture was incubated at 37° C. for 30 min; (5) then the reactions was stopped with 50 µM EDTA (ethylenediaminetetraacetic acid).
3. Substrate (Enzo Cat# P-139): 10 µM Z-FR-AMC (AMC: 7-amino-4-methylcoumarin).
4. Detection: EnVision (PE), Ex/Em 355/460 nm.
5. Reaction process: (1) The specified enzymes and substrates were prepared in freshly prepared activation buffer; (2) the enzyme solution was injected into the reaction hole; (3) the DMSO solution of the test compound was injected into the reaction mixture, and controlled within the nanoliter range using acoustic technology (Echo 550, LabCyte Inc. Sunnyvale, CA); (4) after 10 min of pre-incubation, the substrate solution was injected into the reaction hole to start the reaction; (5) the activity of the enzyme could be indicated by the increase of the fluorescence signal of the fluorescent labeled peptide substrate, which was monitored every 5 min and lasted for 120 min at room temperature; (6) data analysis: the slope* (fluorescence signal/time) of the straight line was measured, then the slope could be calculated by excel and the curve could be fitted by Prism software.

[2] = system: rat DME model induced by CA-1 (100 ng); experiment: In vivo pharmacodynamic study on rat DME model induced by CA-1 (retinal thickness by OCT); design: species or system male SD rats
Experimental: 20 rats were selected from 25 male SD rats and divided into 5 groups according to their body weight, with 4 rats in each group and 1 spare rat in each group, and all the animals were examined by optical coherence tomography before modeling, 48 hours and 72 hours after modeling, respectively. The appropriate scanning position for measurement was selected and the retinal thickness was marked. Through the changes of retinal thickness in each group, the effects of the test compounds on improving retinal edema were compared, and the active compounds were screened. The above experimental operations of modeling and inspection should follow the order of the right eye first and then the left eye.
• Species: Rat • Strain: SD rat, SPF grade • Age and weight: 7-8 weeks old, weighing 250-300 g • Sex: Male • Supplier: Zhejiang Vital River Laboratory Animal Technology Co., Ltd. • Animal certificate number: • 2.2 Molding agent • Carbonic anhydrase-1 (CA-1, Sigma) • 3. Experimental methods and procedures • 3.1 Administration and modeling
On the day of modeling, all animals were first administered the vehicle or the test compound orally, and about 4 hours later, the animals were injected with physiological saline (5 µL/eye) or CA-I (100 ng/eye) into the vitreous cavity of both eyes for modeling, and the end time of injection in the second eye was recorded as 0 hour, and the vehicle (10 % DMSO + 90 % labrasol) or the test compound was administered orally to all animals at 4±0.5 hours, 20±0.5 hours, 28±0.5 hours, 44±0.5 hours, 52±0.5 hours and 68±0.5 hours after modeling, respectively.
Before modeling, 48 hours and 72 hours after modeling, animals were first anesthetized, and then examined by optical coherence tomography (OCT), and before anesthesia, appropriate mydriatic agents were used to ensure that the pupils of animals were completely dilated, and the animals were anesthetized by a combination of intramuscular injection of Zoletil (5 mg/kg) and Xylazine solution (3 mg/kg). OCT inspection requirements are as follows: • 1) The optic disc should be placed in the center of the infrared fundus image during data collection; • 2) the retinal scan was performed in a “pozidriv” type, with the crossover point over the optic disc, and the retina was scanned at the widest length. • 3) The software tracking function was used as much as possible for comparison of retinal thickness before and after administration, and if the tracking function was not available, the eye position was adjusted as much as possible to be consistent with that before administration, and the clarity of the tomographic images was ensured as much as possible to facilitate comparison of retinal thickness before and after administration.

[3] = oral 75 mg/kg, 48 hours after modeling
[4] = oral 75 mg/kg, 72 hours after modeling

T1 sequence (P03952 20-638): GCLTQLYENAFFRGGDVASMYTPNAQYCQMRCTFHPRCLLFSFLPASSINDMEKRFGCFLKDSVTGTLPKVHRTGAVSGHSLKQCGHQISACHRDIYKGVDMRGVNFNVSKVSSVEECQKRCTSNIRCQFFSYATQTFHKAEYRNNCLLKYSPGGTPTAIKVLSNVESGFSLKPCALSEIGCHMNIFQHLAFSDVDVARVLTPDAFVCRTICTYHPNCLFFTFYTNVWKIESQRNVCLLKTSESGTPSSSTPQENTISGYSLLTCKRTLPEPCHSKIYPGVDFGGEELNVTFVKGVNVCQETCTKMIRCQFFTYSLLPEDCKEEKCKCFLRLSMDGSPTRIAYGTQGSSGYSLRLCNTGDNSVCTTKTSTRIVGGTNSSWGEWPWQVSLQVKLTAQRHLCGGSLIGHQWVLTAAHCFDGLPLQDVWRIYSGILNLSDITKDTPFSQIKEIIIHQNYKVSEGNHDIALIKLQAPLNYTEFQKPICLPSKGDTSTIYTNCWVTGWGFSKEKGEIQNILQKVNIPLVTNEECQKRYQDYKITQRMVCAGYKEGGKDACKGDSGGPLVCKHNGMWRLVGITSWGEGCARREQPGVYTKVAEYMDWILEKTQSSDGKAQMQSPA

| IC50 [1] | Structure (SMILES) | relief rate of retinal thickening ([2]; oral 50 mg/kg, 48 hours after modeling) | relief rate of retinal thickening ([2]; oral 50 mg/kg, 72 hours after modeling) | relief rate of retinal thickening [2, 3] | relief rate of retinal thickening [2, 4] |
| --- | --- | --- | --- | --- | --- |
| 0.139 nM | COc1ccc(F)c(CNC(=O)c2cn(Cc3ccc(Cn4cc(F)ccc4=O)cc3)nc2C2COC2)c1F [Compound 1] | 19% | 79% | 100% | 100% |
| 0.465 nM | COc1ccc(F)c(CNC(=O)c2cn(Cc3ccc(Cn4cc(F)ccc4=O)c(F)c3)nc2C2COC2)c1F [Compound 8] |  |  | 84% | 116% |

Source: patent publication US11814371B2, “Heterocyclic compound” (MEDSHINE DISCOVERY INC., priority 2020, dated 2023)
